Measured values from patent US6326395A, “Antifungal activity of dicationic molecules” (priority 1999, dated 2001).
≈ marks a conversion by molar mass, not a printed value. Counter-ions that a name gives are not always drawn. Like-named read-outs stand apart in the source and are kept apart here.

Columns and labels:
Cryptococcus neoformans = experiment: in vitro antifungal susceptibility testing (MIC, MFC; broth macrodilution), Tables 1-7; type: cell-based; conditions: for MIC: read-out: MIC80 (Minimum inhibitory concentration 80%); for MFC: read-out: MFC (Minimum fungicidal concentration)
Source text: (§1) The fungi that were employed included two reference strains, C. neoformans var. neoformans H99 and C. albicans A39 and the following clinical isolates: (1) two strains of fluconazole-resistant C. neoformans var. neoformans (135.95 and 114.96); (2) two strains of C. neoformans var. gattii (119.95 and 114.95); (3) two strains of fluconazole-resistant C. albicans (102.96 and 103.96); and (4) one strain each of Torulopsis glabrata (142.91), Candida parapsilosis (111.96), Candida krusei (132.91), C. tropicalis (110.96), Candida lusitaniae (111.92), Fusarium solani (152.89), Aspergillus fumigatus (168.95), and Aspergillus flavus (112.96). Antifungal susceptibility testing was performed using an RPMI-1640 medium (Sigma Chemical Co., St. Louis, Mo.) with glutamine, without sodium bicarbonate, and buffered at pH 7.0 with 0.165 M morpholine-propanesulfonic acid (MOPS).
(§2) In vitro susceptibility testing in the form of Minimum Inhibitory Concentration (MIC) experiments were performed using the broth macrodilution method according to the recommendations of the National Committee for Clinical Laboratory Standards (see 1995 manual). The only difference compared to the standardized procedure was the choice of drug dilutions ranging from 100 to 0.09 μg/ml. Briefly, this procedure specifies an inoculum grown at 35° C. and adjusted to a concentration of 0.5-2.5×10^3 CFU/ml with an incubation of the test performed at 35° C. and reading at 48 hours for all yeasts except for C. neoformans which is interpreted at 72 hr.
(§3) Minimum Fungicidal Concentration (MFC) experiments were adapted from a method by McGinnis (McGinnis, M. R., (1980) "Susceptibility testing and bioassay procedure", p. 431, Academic Press, Inc., New York). Briefly, 10 μl aliquots from tubes with growth inhibition were plated onto Sabouraud agar plates.
(§4) The fungi that were employed included two quality control reference strains, C. neoformans var. neoformansH99 and C. albicans A39 and the following clinical isolates: (1) four strains of C. neoformans var. neoformans (167.95; 135.95; 114.96; and 133.95) of which three were fluconazole-resistant>64 μg/ml (135.95; 114.96; and 133.95); (2) two strains of C. neoformans var. gattii (119.95 and 114.95); (3) two strains of fluconazole-resistant>64 μg/ml C. albicans (102.96 and 103.96); and (4) one strain each of C. glabrata (142.91), Candida parapsilosis (111.96), Candida krusei (132.91), C. tropicalis (110.96), Candida lusitaniae (111.92), Fusarium solani (152.89), Aspergillus fumigatus (168.95), Rhizopus arrhizus (117.89), Paecilomyces lilacinus (137.90), and Aspergillus flavus (112.96). Antifungal susceptibility testing was performed using an RPMI-1640 medium (Sigma Chemical Co., St. Louis, Mo.) with glutamine, without sodium bicarbonate, and buffered at pH 7.0 with 0.165 M morpholinepropanesulfonic acid (MOPS).
as §3, with “p.431,” for “p. 431,”

Candida albicans = experiment: as above; type: cell-based; conditions: for MIC: read-out: MIC80 (Minimum inhibitory concentration 80%); for MFC: read-out: MFC (Minimum fungicidal concentration)
Source text: as §1, §2, §3, §4
as §3, with “p.431,” for “p. 431,”

[1] = Tables 2-7, three or fewer colonies
[2] = Table 1, three or fewer colonies

| SMILES | MIC (Cryptococcus neoformans; 35° C., 72 hr) | MIC (Candida albicans; 35° C., reading at 48 hours) | MFC (Cryptococcus neoformans; [1]) | MFC (Candida albicans; three or fewer colonies) | further results |
| --- | --- | --- | --- | --- | --- |
| N=C(N)c1ccc(OCCOc2ccc(C(=N)N)cc2N)c(N)c1 [Compound 2] | > 100 µg/mL | 25 µg/mL (≈ 76.1 µM) |  |  |  |
| N=C(N)c1ccc2nc(-c3ccc(O)cc3)[nH]c2c1 [Compound 61] | > 100 µg/mL | > 100 µg/mL | > 100 µg/mL |  |  |
| N=C(N)c1ccc(NCCCNc2ccc(C(=N)N)cc2[N+](=O)[O-])c([N+](=O)[O-])c1 [Compound 10] |  |  |  |  | MIC (Cryptococcus neoformans; 72 h): 100 µg/mL (≈ 250 µM); MFC (Cryptococcus neoformans): 100 µg/mL (≈ 250 µM); MIC (Candida albicans; 48 h): 100 µg/mL (≈ 250 µM); MFC (Candida albicans): 100 µg/mL (≈ 250 µM) |
| NC(=NO)c1ccc(OCCCOc2ccc(C(N)=NO)cc2)cc1 [Compound 5] | > 100 µg/mL | > 100 µg/mL |  |  |  |
| c1cc2nc(-c3ccc(-c4nc5ccc(C6=NCCN6)cc5[nH]4)cc3)[nH]c2cc1C1=NCCN1 [Compound 48] | 0.78 µg/mL (≈ 1.75 µM) | 0.78 µg/mL (≈ 1.75 µM) | 1.56 µg/mL (≈ 3.49 µM) | 6.25 µg/mL (≈ 14 µM) |  |
| N=C(N)c1ccc(Oc2ccc(-c3nc4ccc(C(=N)N)cc4[nH]3)cc2)cc1 [Compound 67] | 0.78 µg/mL (≈ 2.11 µM) | 0.78 µg/mL (≈ 2.11 µM) | 6.25 µg/mL (≈ 16.9 µM) | 0.78 µg/mL (≈ 2.11 µM) |  |
| N=C(N)c1ccc2nc(-c3ccc4oc(-c5nc6ccc(C(=N)N)cc6[nH]5)cc4c3)[nH]c2c1 [Compound 55, 2,5-Bis[2-(5-amidino)benzimidazoyl]benzo[b]furan hydrochloride] | 0.19 µg/mL | 0.39 µg/mL | 0.19 µg/mL | 0.78 µg/mL |  |
| N=C(N)c1ccc(NCCCNc2ccc(C(=N)N)cc2N)c(N)c1 [Compound 9] | 25 µg/mL (≈ 73.4 µM) | 12.5 µg/mL (≈ 36.7 µM) |  | > 100 µg/mL | MFC (Cryptococcus neoformans; [2]): 50 µg/mL (≈ 147 µM) |
| N=C(N)c1cccc(OCCCCCCOc2cccc(C(=N)N)c2)c1 [Compound 19] | 6.25 µg/mL (≈ 17.6 µM) | 1.58 µg/mL (≈ 4.46 µM) |  | 12.5 µg/mL (≈ 35.3 µM) | MFC (Cryptococcus neoformans; [2]): 12.5 µg/mL (≈ 35.3 µM) |
| CC(C)NC(=N)c1ccc(-c2ccc(-c3ccc(C(=N)NC(C)C)cc3)o2)cc1 [Compound 25] | 6.25 µg/mL (≈ 16.1 µM) | 25 µg/mL (≈ 64.3 µM) | 50 µg/mL (≈ 129 µM) | 50 µg/mL (≈ 129 µM) |  |
| N=C(N)c1ccc(OCCCOc2ccc(C(=N)N)cc2)cc1 [Compound 3] | 6.25 µg/mL (≈ 20 µM) | 3.12 µg/mL (≈ 9.99 µM) |  | 3.12 µg/mL (≈ 9.99 µM) | MFC (Cryptococcus neoformans; [2]): 6.25 µg/mL (≈ 20 µM) |
| CN(C)CCCN(C)C(=O)c1ccc(-c2ccc(-c3ccc(C(=O)N(C)CCCN(C)C)cc3)o2)cc1 [Compound 37] | > 110 µg/mL | > 100 µg/mL |  |  |  |
| N=C(N)c1ccc2nc(CCc3nc4ccc(C(=N)N)cc4[nH]3)[nH]c2c1 [Compound 30] | 6.25 µg/mL (≈ 18 µM) | 12.5 µg/mL (≈ 36.1 µM) | 25 µg/mL (≈ 72.2 µM) | 50 µg/mL (≈ 144 µM) |  |
| N=C(NC1CCCC1)c1ccc2nc(-c3ccc(-c4ccc(-c5ccc(-c6nc7ccc(C(=N)NC8CCCC8)cc7[nH]6)cc5)o4)cc3)[nH]c2c1 [Compound 54, 4,4'-Bis[2-(5-N-cyclopentylamidino)benzimidazoyl]-2,5-diphenylfuran hydrochloride] | 1.56 µg/mL | 1.56 µg/mL | 6.25 µg/mL | 1.56 µg/mL |  |
| N=C(N)c1ccc(OCCCCOc2ccc(C(=N)N)cc2)cc1 [Compound 11] | 3.12 µg/mL (≈ 9.56 µM) | 25 µg/mL (≈ 76.6 µM) |  | 50 µg/mL (≈ 153 µM) | MFC (Cryptococcus neoformans; [2]): 6.25 µg/mL (≈ 19.1 µM) |
| c1cc(-c2nc3ccc(C4=NCCN4)cc3[nH]2)ccc1C1=NCCN1 [Compound 62] | 50 µg/mL (≈ 151 µM) | 50 µg/mL (≈ 151 µM) |  | > 100 µg/mL |  |
| CN(CCCNC(=O)c1ccc(-c2ccc(-c3ccc(C(=O)NCCCN(C)c4ccccc4)cc3)o2)cc1)c1ccccc1 [Compound 36] | > 100 µg/mL | > 100 µg/mL |  |  |  |
| N=C(N)c1cccc(OCCCOc2cccc(C(=N)N)c2)c1 [Compound 7] |  | > 100 µg/mL |  | > 100 µg/mL |  |
| N=C(N)c1ccc(OCCCCCOc2ccc(C(=N)N)cc2)cc1 [Pentamidine, reference compound] |  |  |  |  | MIC (Cryptococcus neoformans; 72 h): 3.12 µg/mL (≈ 9.16 µM); MFC (Minimum fungicidal concentration) (Cryptococcus neoformans; [1]): 6.25 µg/mL (≈ 18.4 µM); MFC (Cryptococcus neoformans): 6.25 µg/mL (≈ 18.4 µM); MIC (Candida albicans; 48 h): 0.78 µg/mL (≈ 2.29 µM); MFC (Candida albicans): 1.56 µg/mL (≈ 4.58 µM) |
